Measurements as given in ChEMBL document CHEMBL1155915, “Anticonvulsant activity of some xanthone derivatives” (Bioorg Med Chem, 2008).
The source made the active and inactive calls. The calls are words filed in the database; no cut-off is given here.

What was measured:
Mus musculus [1] = assay: Anticonvulsant activity against maximal electroshock-induced seizures in mouse at 300 mg/kg, ip after 0.5 hrs; format: functional, organism-based; parameters: dose 300 mg/kg
Mus musculus [2] = assay: Anticonvulsant activity against maximal electroshock-induced seizures in mouse at 100 mg/kg, ip after 0.5 hrs; format: functional, organism-based; parameters: dose 100 mg/kg
Mus musculus [3] = assay: Anticonvulsant activity against scMet-induced seizures in mouse at 30 mg/kg, ip after 4 hrs; format: functional, organism-based; parameters: dose 30 mg/kg
Mus musculus [4] = assay: Neurotoxicity in mouse at 30 mg/kg, ip after 0.5 hrs by rotarod test; format: toxicity, organism-based; parameters: dose 30 mg/kg, route intraperitoneal; details: in vivo
Mus musculus [5] = assay: Anticonvulsant activity against maximal electroshock-induced seizures in mouse at 30 mg/kg, ip after 4 hrs; format: functional, organism-based; parameters: dose 30 mg/kg
Mus musculus [6] = assay: Neurotoxicity in mouse at 30 mg/kg, ip after 4 hrs by rotarod test; format: toxicity, organism-based; parameters: dose 30 mg/kg, route intraperitoneal; details: in vivo
Mus musculus [7] = assay: Anticonvulsant activity against scMet-induced seizures in mouse at 100 mg/kg, ip after 0.5 hrs; format: functional, organism-based; parameters: dose 100 mg/kg
Mus musculus [8] = assay: Anticonvulsant activity against maximal electroshock-induced seizures in mouse at 300 mg/kg, ip after 4 hrs; format: functional, organism-based; parameters: dose 300 mg/kg
Mus musculus [9] = assay: Anticonvulsant activity against maximal electroshock-induced seizures in mouse at 30 mg/kg, ip after 0.5 hrs; format: functional, organism-based; parameters: dose 30 mg/kg
Mus musculus [10] = assay: Neurotoxicity in mouse at 100 mg/kg, ip after 4 hrs by rotarod test; format: toxicity, organism-based; parameters: dose 100 mg/kg, route intraperitoneal; details: in vivo
Mus musculus [11] = assay: Anticonvulsant activity against scMet-induced seizures in mouse at 100 mg/kg, ip after 4 hrs; format: functional, organism-based; parameters: dose 100 mg/kg
Mus musculus [12] = assay: Anticonvulsant activity against scMet-induced seizures in mouse at 300 mg/kg, ip after 4 hrs; format: functional, organism-based; parameters: dose 300 mg/kg
Mus musculus [13] = assay: Neurotoxicity in mouse at 300 mg/kg, ip after 0.5 hrs by rotarod test; format: toxicity, organism-based; parameters: dose 300 mg/kg, route intraperitoneal; details: in vivo
Mus musculus [14] = assay: Neurotoxicity in mouse at 300 mg/kg, ip after 4 hrs by rotarod test; format: toxicity, organism-based; parameters: dose 300 mg/kg, route intraperitoneal; details: in vivo
Mus musculus [15] = assay: Anticonvulsant activity against scMet-induced seizures in mouse at 30 mg/kg, ip after 0.5 hrs; format: functional, organism-based; parameters: dose 30 mg/kg
Mus musculus [16] = assay: Anticonvulsant activity against maximal electroshock-induced seizures in mouse at 100 mg/kg, ip after 4 hrs; format: functional, organism-based; parameters: dose 100 mg/kg
Mus musculus [17] = assay: Anticonvulsant activity against scMet-induced seizures in mouse at 300 mg/kg, ip after 0.5 hrs; format: functional, organism-based; parameters: dose 300 mg/kg
Mus musculus [18] = assay: Neurotoxicity in mouse at 100 mg/kg, ip after 0.5 hrs by rotarod test; format: toxicity, organism-based; parameters: dose 100 mg/kg, route intraperitoneal; details: in vivo

Row | Compound | Activity (Mus musculus [1]) | Activity (Mus musculus [2]) | Activity (Mus musculus [3]) | Neurotoxicity (Mus musculus [4]) | Activity (Mus musculus [5]) | Neurotoxicity (Mus musculus [6]) | Activity (Mus musculus [7]) | Activity (Mus musculus [8]) | Activity (Mus musculus [9]) | Neurotoxicity (Mus musculus [10]) | Activity (Mus musculus [11]) | Activity (Mus musculus [12]) | Neurotoxicity (Mus musculus [13]) | Neurotoxicity (Mus musculus [14]) | Activity (Mus musculus [15]) | Activity (Mus musculus [16]) | Activity (Mus musculus [17]) | Neurotoxicity (Mus musculus [18])
1 | CCOC(=O)CNC(=O)c1ccc2oc3ccccc3c(=O)c2c1 | inactive | inactive | inactive | Not Active | inactive | Not Active | inactive | inactive | inactive | Not Active | inactive | inactive | Not Active | Not Active | inactive | inactive | inactive | Not Active
2 | O=c1c2ccc(Cl)cc2oc2ccc(CNCCO)cc12 | Active | – | inactive | – | inactive | Not Active | inactive | Active | inactive | Not Active | inactive | inactive | – | Not Active | inactive | inactive | inactive | –
3 | O=c1c2ccc(Cl)cc2oc2ccc(CNCCCCCO)cc12 | Active | – | inactive | – | inactive | Not Active | inactive | Active | inactive | Not Active | inactive | inactive | Neurotoxic | – | inactive | inactive | inactive | –
4 | C[C@H](O)CNCc1ccc2oc3cc(Cl)ccc3c(=O)c2c1 | Active | Active | inactive | Not Active | Active | Not Active | inactive | inactive | inactive | Not Active | inactive | inactive | – | – | inactive | Active | inactive | –
5 | CC[C@H](CO)NCc1ccc2oc3cc(Cl)ccc3c(=O)c2c1 | Active | – | inactive | Not Active | inactive | Not Active | inactive | Active | inactive | – | inactive | inactive | Neurotoxic | – | inactive | inactive | inactive | –
6 | O=C(N[C@@H]1CCCC[C@H]1O)c1ccc2oc3ccccc3c(=O)c2c1 (racemic) | inactive | inactive | inactive | Not Active | inactive | Not Active | inactive | inactive | inactive | Not Active | inactive | inactive | – | Not Active | inactive | – | inactive | Not Active
7 | NC(=O)CNC(=O)c1ccc2oc3ccccc3c(=O)c2c1 | inactive | inactive | inactive | Not Active | inactive | Not Active | inactive | inactive | inactive | Not Active | inactive | inactive | Not Active | Not Active | inactive | inactive | inactive | Not Active
8 | C[C@@H](CO)N(C)Cc1ccc2oc3cc(Cl)ccc3c(=O)c2c1 | Active | Active | inactive | – | inactive | – | inactive | Active | inactive | Not Active | inactive | inactive | Neurotoxic | Neurotoxic | inactive | – | inactive | –
9 | C[C@@H](O)CNCc1ccc2oc3cc(Cl)ccc3c(=O)c2c1 | Active | Active | inactive | – | Active | – | inactive | inactive | inactive | – | inactive | inactive | Neurotoxic | Neurotoxic | inactive | Active | inactive | –
10 | CC(CCl)N(C)Cc1ccc2oc3cc(Cl)ccc3c(=O)c2c1.Cl (stereo not given) | Active | – | inactive | Not Active | inactive | Not Active | inactive | inactive | inactive | – | inactive | inactive | Neurotoxic | Neurotoxic | inactive | inactive | inactive | –
11 | O=C(NCCCCO)c1ccc2oc3ccccc3c(=O)c2c1 | inactive | inactive | inactive | Not Active | inactive | Not Active | inactive | inactive | inactive | Not Active | inactive | inactive | Not Active | Not Active | inactive | inactive | inactive | Not Active
12 | CC(CO)NC(=O)c1ccc2oc3ccccc3c(=O)c2c1 (stereo not given) | inactive | inactive | inactive | Not Active | inactive | Not Active | inactive | inactive | inactive | Not Active | inactive | inactive | Not Active | Not Active | inactive | inactive | inactive | Not Active
13 | CC(CO)NC(=O)c1ccc2oc3cc(Cl)ccc3c(=O)c2c1 (racemic) | inactive | inactive | inactive | – | inactive | Not Active | inactive | inactive | inactive | Not Active | inactive | inactive | Not Active | Not Active | inactive | inactive | inactive | Not Active
14 | CN(CCO)Cc1ccc2oc3cc(Cl)ccc3c(=O)c2c1 | inactive | – | inactive | Not Active | inactive | Not Active | inactive | – | inactive | Not Active | inactive | inactive | Neurotoxic | Neurotoxic | inactive | inactive | inactive | –
